Results: patent publication US10052346B2, “Treatment of myelodysplastic syndromes with 2-O and,or 3-O desulfated heparinoids” (Cantex Pharmaceuticals, Inc., priority 2015, dated 2018)
“Also recorded” adds a separate entry of the source.

What was measured:
[1] = test system: advanced pancreatic cancer; details: dalteparin added to gemcitabine; cited from earlier work
ovarian cancer = details: with standard chemotherapy regimen; cited from earlier work
[2] = test system: advanced prostate, lung, or pancreatic cancer; details: added to existing standard of care protocols; cited from earlier work
[3] = clotting time in an aPTT assay after administration to a subject; type: in vivo; details: ODSH at a dose equivalent in weight to a fully-anticoagulating dose of unfractionated heparin; UFH at fully anticoagulant dose; normal about 27 to 35 seconds
Excerpt: In contrast to unfractionated heparin, ODSH is substantially non-anticoagulating: administered to a subject at a dose that is equivalent in weight to a fully-anticoagulating dose of unfractionated heparin, the clotting time measured in an aPTT assay is no greater than 45 seconds, and typically in the upper range of normal, where normal clotting time ranges from about 27 to 35 seconds. By comparison, unfractionated heparin administered to a subject at a fully anticoagulant dose causes time to clot to range from about 60 to about 85 seconds in an aPTT assay.

human pancreatic cancer = details: regimen that includes gemcitabine; cited from earlier work
[4] = test system: metastatic adenocarcinoma of the pancreas; details: cited from earlier work
bone marrow = assay: serial bone marrow biopsies in the AML trial; type: in vivo, human; details: one patient treated with ODSH, cytarabine and idarubicin; for bone marrow biopsy appearance at Day 14 of the induction cycle: FIG. 2B; for bone marrow biopsy appearance at Day 28: FIG. 2C
Excerpt: Bone marrow biopsies were obtained in the AML, trial described in Example 1.
FIGS. 2A-2C are photomicrographs of biopsies from one of the patients.

anti-thrombin III = anti-thrombin III (Homo sapiens, UniProt P01008); assay: affinity for anti-thrombin III; type: binding; details: for Kd: measured as described in Rao et al.; for Kd for anti-thrombin III: same Kd as mass concentration
[5] = test system: acute myeloid leukemia (AML); assay: single arm open-label clinical study of ODSH with idarubicin + cytarabine induction (NCT02056782); type: in vivo, human
Method: A single arm open-label clinical study was conducted at multiple trial sites (University of Utah, Georgia Regents University, and Medical University of South Carolina) in patients with newly diagnosed acute myeloid leukemia (AML) to confirm that ODSH could accelerate platelet and white blood cell (WBC) recovery in patients receiving induction chemotherapy with a regimen known to have myelosuppressive side effects.
All patients received the following standard (“7+3”) induction regimen, • Idarubicin (12 mg/m^2/day) by short intravenous infusion on Days 1, 2, and 3; and • Cytarabine (100 mg/m^2) as a continuous intravenous infusion over 24 hours (Days 1 through 7).
All patients also received CX-01, a substantially 2-O, 3-O-desulfated heparin derivative (ODSH) as an intravenous bolus immediately after the idarubicin dose on Day 1, at a dose of 4 mg/kg, followed by a continuous intravenous infusion at a dose of 0.25 mg/kg/hr for a total of 7 days (Days 1 through 7).
Twelve patients were enrolled. The median age was 56 (range 22-74). Based on cytogenetic, molecular, or antecedent hematologic disorder, 9 of 12 patients fell into the intermediate or poor risk categories. […] Complete remission at the end of the induction cycle was assessed using International Working Group (IWG) criteria (see, e.g., Cheson et al., J. Clin. Oncol. 21:4642 (2003)).
Platelet, neutrophil, and WBC recovery of the ODSH-treated AML patients was compared with the recovery in historical control patients receiving identical doses of idarubicin and cytarabine as induction therapy in a previous clinical study comparing idarubicin and daunorubicin in combination with cytarabine (Vogler et al., J. Clin. Oncol. 10(7):1103-11(1992)). In the previous study, 101 patients received idarubicin 12 mg/m^2 on days 1, 2, and 3 and cytarabine 100 mg/m^2 on days 1-7. Growth factors were not administered to any patient.

[6] = stability testing of CX-01 infusion solutions; type: physicochemical; details: room temperature; diluted in 0.9% sodium chloride
Method: Based upon current stability testing data, CX-01 infusion solutions expire at room temperature 72 hours after preparation and should be stored in a refrigerator (2 to 8° C.) until used.

Xa = target: T1, Xa (Homo sapiens, UniProt P00742); details: comparator heparin; Rao et al.; cited from earlier work
T1 construct: an assay carried out using plasma treated with Russell viper venom; from tissue; host or cells: plasma

IIa = IIa (Homo sapiens, UniProt P00734+P01008); details: comparator heparin; Rao et al.; cited from earlier work
[7] = comparator heparin; Rao et al.; cited from earlier work
pancreatic cancer model = details: in vivo; cited from earlier work
[8] = ODSH added to gemcitabine plus nab-paclitaxel
[9] = median follow-up of 14.2 months

anti-thrombin III, sequence (P01008 33-464, species assumed): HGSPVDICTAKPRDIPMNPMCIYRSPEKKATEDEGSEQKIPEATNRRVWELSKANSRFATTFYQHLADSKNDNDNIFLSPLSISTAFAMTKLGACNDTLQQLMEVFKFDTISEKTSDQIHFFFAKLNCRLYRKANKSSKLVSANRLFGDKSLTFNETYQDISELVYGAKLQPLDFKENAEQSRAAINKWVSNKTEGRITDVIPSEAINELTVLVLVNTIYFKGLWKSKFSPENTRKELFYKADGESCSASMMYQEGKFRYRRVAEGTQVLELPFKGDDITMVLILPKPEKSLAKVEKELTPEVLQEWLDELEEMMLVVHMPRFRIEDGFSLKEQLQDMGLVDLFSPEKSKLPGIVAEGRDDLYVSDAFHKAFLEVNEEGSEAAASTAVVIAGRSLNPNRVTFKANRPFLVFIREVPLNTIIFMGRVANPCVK
T1 sequence (P01008 33-464 partner): as the sequence (P01008 33-464, species assumed) above
T1 sequence (P00742 235-488 limits assumed): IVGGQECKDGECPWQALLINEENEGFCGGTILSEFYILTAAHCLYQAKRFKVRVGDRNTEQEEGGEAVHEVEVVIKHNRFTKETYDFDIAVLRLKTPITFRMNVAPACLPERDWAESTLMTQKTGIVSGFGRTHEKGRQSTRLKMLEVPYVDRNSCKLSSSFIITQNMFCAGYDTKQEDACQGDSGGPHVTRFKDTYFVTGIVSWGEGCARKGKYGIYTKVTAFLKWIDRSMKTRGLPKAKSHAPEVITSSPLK

dalteparin
survival [1]: no statistically significant improvement in survival | outcome (ovarian cancer): could not be shown to improve outcome

nadroparin
survival benefit [2]: no statistically significant survival benefit

substantially 2-O, 3-O desulfated heparin [ODSH]
clotting time measured in an aPTT assay [3]: ≤ 45 s | efficacy of chemotherapy regimen in animal model (human pancreatic cancer): improves the efficacy of a chemotherapy regimen; also recorded: sensitize cancer cells to chemotherapy | overall survival [4, 8]: did not provide a statistically significant increase; also recorded: no statistically significant benefit | progression-free survival [4, 8]: did not provide a statistically significant increase; also recorded: no statistically significant benefit | myelosuppressive side effects of the gemcitabine plus nab-paclitaxel regimen ([4]; U.S. Pat. No. 8,734,804): attenuate the myelosuppressive side effects | bone marrow biopsy appearance at Day 14 of the induction cycle (bone marrow): elimination of most normal bone marrow cells as well as leukemia cells | bone marrow biopsy appearance at Day 14 of the induction cycle (bone marrow; listed as CX-01 ODSH): significant depletion of normal bone marrow cells | bone marrow biopsy appearance at Day 28 (bone marrow): no evidence of leukemic cells and restoration of normal bone marrow appearance and function | bone marrow biopsy appearance at Day 28 (bone marrow; listed as CX-01 ODSH): no evidence of leukemia and restoration of normal bone marrow appearance and function | Kd (anti-thrombin III): ~339 µM | Kd for anti-thrombin III (anti-thrombin III): ~4000 µg/mL | patients remaining in complete remission ([5]; 5-13 months after having been enrolled in the study): 10 of the 12 | patients with primary AML achieving complete remission at the end of a single induction cycle ([5]; 11 patients with primary AML): 11 | myelosuppressive side effects of the idarubicin+cytarabine regimen ([5]; AML patients): significantly attenuated the myelosuppressive side effects | Complete response with first induction cycle (morphologic complete remission, IWG criteria) ([5]; AML patients, n = 12, 11 out of 12): 92% | median OS [5, 9]: ≥ 13.6 months | median event free survival [5, 9]: 13.5 months | median time to relapse ([5]; six patients who relapsed): 8 months | expiry of infusion solutions after preparation [6]: 72 h

unfractionated heparin
anti-Xa activity (Xa): 165-190 U/mg | anti-IIa activity (IIa): 165-190 U/mg | Kd (anti-thrombin III): 1.56 µM | Kd for anti-thrombin III (anti-thrombin III): 22 µg/mL | anticoagulant activity in the USP anticoagulant assay [7]: 165-190 U/mg | potency of gemcitabine (pancreatic cancer model): enhances potency of gemcitabine
